Reference: patent publication US9920057B2, “Substituted pyrazino[1′,2′:1 ,6]pyrido[3,4-b]indoles as phosphodiesterase type 5 inhibitors” (Chongqing University of Arts and Sciences, priority 2015, dated 2018)
Several values for one entry are separate records, joined by “and”; a condition that tells them apart may be missing. Equal values may be shown once. Read-outs that look alike come from different tables or passages of the source.

Columns and labels:
[1] = Study on pharmacokinetics in rats, oral administration; assay type: in vivo, SD rat
Method: Sample Preparation Method: One step protein precipitation
Precipitant: ACN, with concentration of Verapamil (5.00 ng·mL-1)
Calibration Curve and QC samples Preparation: 5.00 μL each of the calibration or QC working solution and 45.0 μL of blank plasma were transferred into a 1.5-mL microcentrifuge tube. Final standard curve concentration levels were 1.00, 2.50, 5.00, 10.0, 50.0, 100, 500 and 1000 ng·mL-1. The QC concentration levels were 2.50 or 5.00, 50.0 and 800 ng·mL-1. Dilution QC was 5000 ng·mL-1.
Plasma Samples Preparation: Aliquots of 10.0 μL of real samples, calibration curve samples and QC samples were supplemented with 100 μL of precipitant. After vortexed for 3.00 min and centrifuged at 12000 rpm for 5.00 min, the supernatant 10 μL was injected for LC-MS/MS analysis.
Number of Rats/Group: 3/group
Administration Route: oral administration
Blood Collection Time: 0 min, 15 min, 30 min, 1 h, 2 h, 4 h, 6 h, 8 h, 24 h

[2] = biological target: T1, PDE5A (Homo sapiens, UniProt O76074); assay: Inhibition against PDE5 (Homogenous Time Resolve Fluoresce); assay type: biochemical; settings: HTF
T1 construct: purchased SIGMA-ALDRICH E904
Method: Method: IC50 of an inhibition effect on PDE5A (E904, SIGMA-ALDRICH) of test compounds was tested by using Sildenafil (S1431, selleck) as a positive control sample and the method of Homogenous Time Resolve Fluoresce, HTF (Cat. No. 62GM2PEB, Cisbio.)

[3] = tested on: normal rat; assay: Erectile function of normal rat: blood pressure, intracavernous pressure and detumescence time on cavernous nerve stimulation; assay type: in vivo
Method: Rats were anesthetized with 2% pentobarbital […], then incision was made in the right side of neck, a PE-50 silicon tube connected with a pressure transducer was inserted into the carotid artery, to record the change of the blood pressure.
The erectile activity was induced by a bipolar stainless-steel, stimulus parameters at a pulse width of […], stimulation frequency of 7.98 Hz, current of 3 mA, stimulation duration of 40 s, and then record the intracavernous pressure (ICP).
Assessment of erectile function: ICP, BP, change of ICP and detumescence time were monitored though electric cavernous nerve stimulation at 2, 6 and 24 hours post dosing. Erectile function was evaluated by change of ICP and detumescence time.

[4] = biological target: T2, PDE7A (Homo sapiens, UniProt Q13946); assay: Inhibition of PDE activity (assay kit); assay type: biochemical
T2 construct: purchased
Method: (§1) i. Supplement 99 μl assay buffer per well, then add 1 μl compound in DMSO dilution to wells of V96 MicroWell Plates and uniformly mix;
(§2) ii. Add 5 μl compound in assay buffer dilution to each well of 96-well microplate;
(§3) the final concentration of compound as below:
(§4) The inhibitory potential of test compounds on several types of phosphodiesterase (PDE) activity is determined according to the protocol of assay kit.

[5] = biological target: T3, PDE3A (Homo sapiens, UniProt Q14432); assay: Inhibition of PDE activity (assay kit); assay type: biochemical
T3 construct: purchased
Method: as §1, §2, §3, §4

[6] = biological target: T4, PDE6C (Homo sapiens, UniProt P51160); assay: Inhibition of PDE activity (assay kit); assay type: biochemical
T4 construct: purchased
Method: as §1, §2, §3, §4

[7] = biological target: T5, PDE2A (Homo sapiens, UniProt O00408); assay: Inhibition of PDE activity (assay kit); assay type: biochemical
T5 construct: purchased
Method: as §1, §2, §3, §4

[8] = biological target: T6, PDE1A (Homo sapiens, UniProt P54750); assay: Inhibition of PDE activity (assay kit); assay type: biochemical
T6 construct: purchased
Method: as §1, §2, §3, §4

[9] = biological target: T7, PDE11A (Homo sapiens, UniProt Q9HCR9); assay: Inhibition of PDE activity (assay kit); assay type: biochemical
T7 construct: purchased
Method: as §1, §2, §3, §4

[10] = biological target: T8, PDE4A (Homo sapiens, UniProt P27815); assay: Inhibition of PDE activity (assay kit); assay type: biochemical
T8 construct: purchased
Method: as §1, §2, §3, §4

[11] = Mean of 3 rats, oral 10.0 mg · kg^−1
[12] = individual rats, oral 10.0 mg · kg^−1
[13] = 2 hours after dosing, High dose
[14] = 2 hours after dosing, Middle dose
[15] = 6 hours after dosing, High dose
[16] = 6 hours after dosing, Middle dose
[17] = 24 hours after dosing, High dose
[18] = 24 hours after dosing, Low dose
[19] = 24 hours after dosing, Middle dose

T3 sequence (Q14432 whole entry): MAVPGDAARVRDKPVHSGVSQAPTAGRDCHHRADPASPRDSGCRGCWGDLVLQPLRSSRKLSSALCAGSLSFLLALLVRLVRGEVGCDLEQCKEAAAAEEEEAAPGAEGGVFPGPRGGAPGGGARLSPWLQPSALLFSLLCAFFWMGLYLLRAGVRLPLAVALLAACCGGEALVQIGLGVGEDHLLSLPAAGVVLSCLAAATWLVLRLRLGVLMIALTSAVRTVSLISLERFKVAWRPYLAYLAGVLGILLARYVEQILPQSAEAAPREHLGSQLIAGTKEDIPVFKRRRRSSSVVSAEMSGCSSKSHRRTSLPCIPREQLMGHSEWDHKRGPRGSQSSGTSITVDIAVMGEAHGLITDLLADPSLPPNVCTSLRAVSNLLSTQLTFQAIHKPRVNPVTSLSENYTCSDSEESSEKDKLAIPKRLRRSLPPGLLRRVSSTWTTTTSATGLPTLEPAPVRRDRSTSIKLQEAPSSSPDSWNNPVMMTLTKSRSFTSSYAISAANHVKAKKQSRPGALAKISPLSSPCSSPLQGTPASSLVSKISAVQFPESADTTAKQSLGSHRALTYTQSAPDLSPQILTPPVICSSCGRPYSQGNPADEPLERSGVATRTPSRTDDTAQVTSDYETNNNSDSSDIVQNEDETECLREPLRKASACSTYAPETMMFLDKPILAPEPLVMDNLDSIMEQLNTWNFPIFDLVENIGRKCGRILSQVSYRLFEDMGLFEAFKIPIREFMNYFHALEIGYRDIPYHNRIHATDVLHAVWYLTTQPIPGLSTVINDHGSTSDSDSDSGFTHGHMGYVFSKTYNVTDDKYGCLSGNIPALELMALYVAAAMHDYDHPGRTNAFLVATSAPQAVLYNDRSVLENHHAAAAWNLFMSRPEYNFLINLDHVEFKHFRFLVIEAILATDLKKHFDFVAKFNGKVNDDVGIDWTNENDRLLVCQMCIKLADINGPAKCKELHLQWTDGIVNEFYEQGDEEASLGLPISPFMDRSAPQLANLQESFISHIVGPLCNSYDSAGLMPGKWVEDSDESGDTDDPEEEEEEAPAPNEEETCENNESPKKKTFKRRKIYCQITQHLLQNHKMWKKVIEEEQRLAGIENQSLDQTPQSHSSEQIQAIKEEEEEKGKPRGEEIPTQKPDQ
T7 sequence (Q9HCR9 whole entry): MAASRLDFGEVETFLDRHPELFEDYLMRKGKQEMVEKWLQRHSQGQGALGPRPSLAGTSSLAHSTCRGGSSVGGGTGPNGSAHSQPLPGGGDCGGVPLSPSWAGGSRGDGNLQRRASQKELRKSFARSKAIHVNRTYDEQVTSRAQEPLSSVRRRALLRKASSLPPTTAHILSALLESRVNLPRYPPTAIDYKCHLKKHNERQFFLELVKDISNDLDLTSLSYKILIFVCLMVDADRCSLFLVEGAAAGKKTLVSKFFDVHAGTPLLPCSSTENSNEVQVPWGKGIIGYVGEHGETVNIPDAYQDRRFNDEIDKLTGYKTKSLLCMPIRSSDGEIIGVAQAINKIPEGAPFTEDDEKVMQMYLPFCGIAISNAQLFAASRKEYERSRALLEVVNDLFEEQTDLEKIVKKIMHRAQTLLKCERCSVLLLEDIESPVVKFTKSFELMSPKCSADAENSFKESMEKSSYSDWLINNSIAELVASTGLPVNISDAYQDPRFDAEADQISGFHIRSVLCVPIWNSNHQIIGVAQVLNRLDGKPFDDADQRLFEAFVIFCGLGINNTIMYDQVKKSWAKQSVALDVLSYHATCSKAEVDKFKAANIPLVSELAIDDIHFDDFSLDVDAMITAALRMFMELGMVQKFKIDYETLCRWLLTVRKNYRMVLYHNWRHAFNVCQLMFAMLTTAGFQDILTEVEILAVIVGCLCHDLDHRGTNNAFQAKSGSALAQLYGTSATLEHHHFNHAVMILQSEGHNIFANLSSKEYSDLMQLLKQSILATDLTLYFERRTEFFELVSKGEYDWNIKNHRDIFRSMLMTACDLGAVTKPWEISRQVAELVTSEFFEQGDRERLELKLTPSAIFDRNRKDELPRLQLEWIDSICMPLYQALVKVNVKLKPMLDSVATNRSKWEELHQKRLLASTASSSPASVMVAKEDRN
T8 sequence (P27815 1-647 isoform P27815-4): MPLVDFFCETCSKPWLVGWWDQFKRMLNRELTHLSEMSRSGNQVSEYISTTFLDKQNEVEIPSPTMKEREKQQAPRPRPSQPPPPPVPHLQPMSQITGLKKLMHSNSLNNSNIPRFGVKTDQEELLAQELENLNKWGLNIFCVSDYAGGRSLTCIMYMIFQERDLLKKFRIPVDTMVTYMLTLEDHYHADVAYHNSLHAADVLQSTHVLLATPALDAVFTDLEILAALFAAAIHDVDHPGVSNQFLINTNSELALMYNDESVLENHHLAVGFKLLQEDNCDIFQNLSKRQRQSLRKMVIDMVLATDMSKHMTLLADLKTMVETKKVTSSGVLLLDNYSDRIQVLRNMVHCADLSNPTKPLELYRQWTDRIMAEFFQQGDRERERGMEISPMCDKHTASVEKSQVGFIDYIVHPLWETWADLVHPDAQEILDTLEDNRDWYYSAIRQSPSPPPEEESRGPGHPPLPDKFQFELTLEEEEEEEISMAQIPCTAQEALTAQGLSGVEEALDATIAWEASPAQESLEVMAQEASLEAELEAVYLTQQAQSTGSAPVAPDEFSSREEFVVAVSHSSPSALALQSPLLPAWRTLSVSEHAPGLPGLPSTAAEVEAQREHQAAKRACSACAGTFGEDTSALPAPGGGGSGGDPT
T6 sequence (P54750 whole entry): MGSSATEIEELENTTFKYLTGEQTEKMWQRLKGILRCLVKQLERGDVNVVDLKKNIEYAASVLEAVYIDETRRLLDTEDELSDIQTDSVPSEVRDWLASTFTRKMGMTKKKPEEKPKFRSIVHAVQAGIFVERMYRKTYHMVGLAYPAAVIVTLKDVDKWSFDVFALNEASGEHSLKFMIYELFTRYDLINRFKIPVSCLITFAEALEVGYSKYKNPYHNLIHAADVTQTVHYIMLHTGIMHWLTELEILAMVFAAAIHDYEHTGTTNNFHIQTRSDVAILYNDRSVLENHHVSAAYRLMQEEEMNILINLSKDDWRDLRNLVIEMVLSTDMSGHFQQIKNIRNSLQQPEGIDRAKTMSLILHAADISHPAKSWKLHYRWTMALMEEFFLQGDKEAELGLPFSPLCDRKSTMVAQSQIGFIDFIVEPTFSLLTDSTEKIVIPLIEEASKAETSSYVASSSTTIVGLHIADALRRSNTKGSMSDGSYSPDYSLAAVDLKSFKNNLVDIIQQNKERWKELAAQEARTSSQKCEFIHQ
T5 sequence (O00408 whole entry): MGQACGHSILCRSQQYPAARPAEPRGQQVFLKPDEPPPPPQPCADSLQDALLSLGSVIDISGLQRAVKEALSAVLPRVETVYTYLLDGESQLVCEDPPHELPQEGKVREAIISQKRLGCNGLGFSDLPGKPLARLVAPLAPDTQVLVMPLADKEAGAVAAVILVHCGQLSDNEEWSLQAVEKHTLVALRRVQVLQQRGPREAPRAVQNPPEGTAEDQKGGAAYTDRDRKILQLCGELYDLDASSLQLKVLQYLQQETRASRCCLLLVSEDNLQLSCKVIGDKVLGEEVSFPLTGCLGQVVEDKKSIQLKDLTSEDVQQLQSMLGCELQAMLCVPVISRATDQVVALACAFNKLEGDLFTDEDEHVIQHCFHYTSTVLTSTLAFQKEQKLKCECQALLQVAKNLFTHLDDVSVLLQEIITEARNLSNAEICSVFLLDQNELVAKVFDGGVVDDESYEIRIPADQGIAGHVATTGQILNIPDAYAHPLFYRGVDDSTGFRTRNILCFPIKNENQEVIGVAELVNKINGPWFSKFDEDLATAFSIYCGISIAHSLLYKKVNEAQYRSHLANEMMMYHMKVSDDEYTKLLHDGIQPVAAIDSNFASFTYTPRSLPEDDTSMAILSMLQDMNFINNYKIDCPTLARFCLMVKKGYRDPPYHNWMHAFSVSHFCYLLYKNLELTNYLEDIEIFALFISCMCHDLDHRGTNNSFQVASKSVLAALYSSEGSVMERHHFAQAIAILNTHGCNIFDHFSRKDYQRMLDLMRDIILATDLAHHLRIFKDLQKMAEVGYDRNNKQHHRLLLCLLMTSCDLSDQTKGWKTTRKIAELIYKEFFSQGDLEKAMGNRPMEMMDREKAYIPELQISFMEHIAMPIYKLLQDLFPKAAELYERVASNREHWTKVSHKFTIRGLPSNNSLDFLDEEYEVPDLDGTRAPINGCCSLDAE
T2 sequence (Q13946 whole entry): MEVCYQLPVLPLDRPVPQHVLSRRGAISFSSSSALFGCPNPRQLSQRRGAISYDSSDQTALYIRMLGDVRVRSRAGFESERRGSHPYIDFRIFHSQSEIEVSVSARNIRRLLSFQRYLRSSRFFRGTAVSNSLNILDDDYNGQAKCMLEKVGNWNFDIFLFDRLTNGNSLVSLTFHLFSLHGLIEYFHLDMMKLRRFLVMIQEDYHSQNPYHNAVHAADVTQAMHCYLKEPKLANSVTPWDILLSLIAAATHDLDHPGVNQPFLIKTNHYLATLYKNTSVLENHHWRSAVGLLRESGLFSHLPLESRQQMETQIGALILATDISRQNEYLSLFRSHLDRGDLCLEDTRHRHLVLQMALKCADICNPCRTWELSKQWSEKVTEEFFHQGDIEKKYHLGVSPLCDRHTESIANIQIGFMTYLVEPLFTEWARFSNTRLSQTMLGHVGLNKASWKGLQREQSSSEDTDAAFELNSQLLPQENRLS

AUMC0-inf [1, 11]: 50280 h · h · ng · mL^−1
AUMC0-t [1, 11]: 49982 h · h · ng · mL^−1
Kel [1, 11]: 0.305 h⁻¹
MRTPO [1, 11]: 4.68 h
half-life ([1]; SD, rat, plasma, po, 10 mg/kg, Mean of 3 rats, oral 10.0 mg · kg^−1): 2.29 h
AUC0-inf ([1]; SD, rat, plasma, po, 10 mg/kg, Mean of 3 rats, oral 10.0 mg · kg^−1, read-out: AUC0-inf): 10800 ng·h/mL
AUC0-t ([1]; SD, rat, plasma, po, 10 mg/kg, Mean of 3 rats, oral 10.0 mg · kg^−1, read-out: AUC0-t): 10800 ng·h/mL
Cmax ([1]; SD, rat, plasma, po, 10 mg/kg, Mean of 3 rats, oral 10.0 mg · kg^−1, read-out: Cmax): 1470 ng/mL
half-life ([1]; SD, rat, plasma, po, 10 mg/kg, individual rats, oral 10.0 mg · kg^−1): 2.12 h
AUC0-inf ([1]; SD, rat, plasma, po, 10 mg/kg, individual rats, oral 10.0 mg · kg^−1, read-out: AUC0-inf): 9980 ng·h/mL
AUC0-t ([1]; SD, rat, plasma, po, 10 mg/kg, individual rats, oral 10.0 mg · kg^−1, read-out: AUC0-t): 9970 ng·h/mL
Cmax ([1]; SD, rat, plasma, po, 10 mg/kg, individual rats, oral 10.0 mg · kg^−1, read-out: Cmax): 1300 ng/mL
Tmax ([1]; SD, rat, plasma, individual rats, oral 10.0 mg · kg^−1): 2 h
Cmax [1, 12]: 1574 ng/mL and 1528 ng/mL
Kel [1, 12]: 0.327 h⁻¹ and 0.269 h⁻¹ and 0.319 h⁻¹
MRTPO [1, 12]: 4.88 h and 4.55 h and 4.61 h
t1/2 [1, 12]: 2.58 h and 2.17 h
Cmax and Auc, comparison in words ([1]; rat, oral, compared with Cialis): more excellent than those of Cialis
IC50 [2]: 0.0336 µM
IC50 [4]: > 10 µM
inhibition at 10 µM ([4]; at 10 μM): 0%
IC50 [5]: > 10 µM
inhibition at 10 µM ([5]; at 10 μM): 0%
IC50 [6]: 14.7 µM
IC50 [7]: > 10 µM
inhibition at 10 µM ([7]; at 10 μM): 0%
IC50 [8]: > 10 µM
inhibition at 10 µM ([8]; at 10 μM): 0%
IC50 [9]: 2.6 µM and 2.64 µM
IC50 ([10]; PDE4A): > 10 µM
inhibition at 10 µM ([10]; PDE4A1A, at 10 μM): 0%
Structure (SMILES): [2H]C1([2H])Oc2ccc([C@@H]3c4[nH]c5ccccc5c4C[C@@H]4C(=O)N(N)CC(=O)N34)cc2O1 [DDCI-01, (6R,12aR)-2-amino-6-(benzo[d][1,3]dioxol-5-yl-2,2-d2)-2,3,6,7,12,12a-hexahydropyrazino[1′,2′:1,6]pyrido[3,4-b]indole-1,4-dione]
half-life (T1/2), comparison in words ([1]; SD rat, oral, compared with Cialis and DDCI02): slightly shorter than that of Cialis and significantly shorter than that of DDCI02
AUC0-inf [1, 12]: 11221 ng·h/mL and 11087 ng·h/mL
AUC0-t [1, 12]: 11202 ng·h/mL and 11080 ng·h/mL
AUMC0-inf [1, 12]: 48665 h · h · ng · mL^−1 and 51065 h · h · ng · mL^−1 and 51110 h · h · ng · mL^−1
AUMC0-t [1, 12]: 48497 h · h · ng · mL^−1 and 50539 h · h · ng · mL^−1 and 50911 h · h · ng · mL^−1
BP after stimulation [3, 13]: 60.97 ± 19.95 mmHg
BP before stimulation [3, 13]: 91.86 ± 21.57 mmHg
Change of BP [3, 13]: 30.89 ± 4.09 mmHg
Change of ICP [3, 13]: 41.20 ± 9.83 mmHg
Detumescence Time [3, 13]: 101.00 ± 21.56 s
ICP after stimulation [3, 13]: 52.25 ± 9.49 mmHg
ICP before stimulation [3, 13]: 11.05 ± 3.25 mmHg
BP after stimulation ([3]; 2 hours after dosing, Low dose): 63.89 ± 2.93 mmHg
BP before stimulation ([3]; 2 hours after dosing, Low dose): 97.43 ± 11.45 mmHg
Change of BP ([3]; 2 hours after dosing, Low dose): 33.54 ± 13.57 mmHg
Change of ICP ([3]; 2 hours after dosing, Low dose): 31.38 ± 3.09 mmHg
Detumescence Time ([3]; 2 hours after dosing, Low dose): 38.00 ± 10.42 s
ICP after stimulation ([3]; 2 hours after dosing, Low dose): 42.86 ± 5.14 mmHg
ICP before stimulation ([3]; 2 hours after dosing, Low dose): 11.48 ± 4.57 mmHg
BP after stimulation [3, 14]: 70.38 ± 7.82 mmHg
BP before stimulation [3, 14]: 96.49 ± 7.55 mmHg
Change of BP [3, 14]: 26.12 ± 3.04 mmHg
Change of ICP [3, 14]: 33.09 ± 7.46 mmHg
Detumescence Time [3, 14]: 40.75 ± 4.79 s
ICP after stimulation [3, 14]: 41.58 ± 7.94 mmHg
ICP before stimulation [3, 14]: 8.49 ± 2.06 mmHg
BP after stimulation [3, 15]: 50.09 ± 22.36 mmHg
BP before stimulation [3, 15]: 76.38 ± 21.11 mmHg
Change of BP [3, 15]: 26.29 ± 1.54 mmHg
Change of ICP [3, 15]: 41.74 ± 7.92 mmHg
Detumescence Time [3, 15]: 64.00 ± 19.37 s
ICP after stimulation [3, 15]: 50.94 ± 11.12 mmHg
ICP before stimulation [3, 15]: 9.20 ± 8.79 mmHg
BP after stimulation ([3]; 6 hours after dosing, Low dose): 61.78 ± 17.93 mmHg
BP before stimulation ([3]; 6 hours after dosing, Low dose): 95.73 ± 18.25 mmHg
Change of BP ([3]; 6 hours after dosing, Low dose): 33.95 ± 3.20 mmHg
Change of ICP ([3]; 6 hours after dosing, Low dose): 31.38 ± 7.73 mmHg
Detumescence Time ([3]; 6 hours after dosing, Low dose): 47.75 ± 11.79 s
ICP after stimulation ([3]; 6 hours after dosing, Low dose): 40.36 ± 5.92 mmHg
ICP before stimulation ([3]; 6 hours after dosing, Low dose): 8.98 ± 3.06 mmHg
BP after stimulation [3, 16]: 61.03 ± 12.64 mmHg
BP before stimulation [3, 16]: 92.91 ± 19.51 mmHg
Change of BP [3, 16]: 31.88 ± 7.39 mmHg
Change of ICP [3, 16]: 33.49 ± 8.09 mmHg
Detumescence Time [3, 16]: 48.00 ± 23.85 s
ICP after stimulation [3, 16]: 40.21 ± 8.37 mmHg
ICP before stimulation [3, 16]: 6.72 ± 3.14 mmHg
BP after stimulation [3, 17]: 52.95 ± 14.12 mmHg
BP before stimulation [3, 17]: 94.16 ± 9.79 mmHg
Change of BP [3, 17]: 41.21 ± 11.98 mmHg
Change of ICP [3, 17]: 43.36 ± 4.90 mmHg
Detumescence Time [3, 17]: 60.75 ± 24.14 s
ICP after stimulation [3, 17]: 52.77 ± 2.07 mmHg
ICP before stimulation [3, 17]: 9.41 ± 3.81 mmHg
BP after stimulation [3, 18]: 72.34 ± 12.33 mmHg
BP before stimulation [3, 18]: 108.36 ± 8.89 mmHg
Change of BP [3, 18]: 36.03 ± 10.90 mmHg
Change of ICP [3, 18]: 30.65 ± 0.98 mmHg
Detumescence Time [3, 18]: 23.75 ± 12.84 s
ICP after stimulation [3, 18]: 43.55 ± 5.05 mmHg
ICP before stimulation [3, 18]: 12.91 ± 5.02 mmHg
BP after stimulation [3, 19]: 69.85 ± 12.70 mmHg
BP before stimulation [3, 19]: 102.18 ± 15.12 mmHg
Change of BP [3, 19]: 32.33 ± 8.76 mmHg
Change of ICP [3, 19]: 31.58 ± 5.75 mmHg
Detumescence Time [3, 19]: 41.25 ± 14.50 s
ICP after stimulation [3, 19]: 40.00 ± 5.56 mmHg
ICP before stimulation [3, 19]: 8.41 ± 1.86 mmHg
erectile function of the normal rat model, result in words ([3]; high, middle, and low doses, Tables 1-9): significantly improved the erectile function
